US8093028B2, “Engineered glycosyltransferases with expanded substrate specificity” (Wisconsin Alumni Research Foundation, priority 2007, dated 2012)

How the values were obtained:
Type in all cases: biochemical
OleD S132F [1] = target: T1, OleD S132F (Streptomyces antibioticus, UniProt Q53685, P55A/R82V/R83E/S132F/T84P); test: Specific activity with novobiocic acid or 4-Me-umb as acceptor and UDP-Glc; settings: UDP-Glc donor
T1 construct: made in house; host or cells: E. coli (site-directed mutant of pET28/OleD)
Method: (§1) Determination of specific activity with 1 or 4 as acceptor. Enzyme reactions were carried out in a total volume of 100 μl/50 mM Tris-HCl (pH8.0) containing 5 mM MgCl2, 200 μM (FIG. 9: 1) or (FIG. 9: 4), 5 mM (FIG. 12: 5), and typically 10-50 μg pure enzyme. At a suitable time interval during which rate of product formation was linear with time (typically 2-20 min), reactions were quenched with 100 μl MeOH, and the samples centrifuged at 10,000 g for 10 min. Supernatants were analyzed by analytical reverse-phase HPLC with a Gemini 5μ C18 column (Phenomenex) using a gradient of 10-90% CH3CN in 0.1% trifluoroacetic acid (TFA)/H2O in 20 min, with detection at 254 nm. […] The identity of (FIG. 9: 7) was confirmed by LC-MS and NMR while the […] of glucoside (FIG. 9: 6) was confirmed by co-elution with a commercial standard and LC-MS analysis. HPLC peak areas were integrated, and the product concentrations calculated as a percent of the total peak area. Specific activity was expressed as nmols product formed/min/mg protein.

OleD G340W = target: T2, OleD G340W (Streptomyces antibioticus, UniProt Q53685, G340W/P55A/R82V/R83E/T84P); test: as above; settings: UDP-Glc donor
T2 construct: made in house; host or cells: E. coli (site-directed mutant of pET28/OleD)
Method: as §1

OleD S132F [2] = target: T1, OleD S132F; test: Rate of glucoside formation with acceptors (RP-HPLC); settings: 200 μM acceptor, 1 mM UDPG
Method: (§2) Enzyme assays for the determination of glycosyl transfer rate to FIG. 1: 4, Table 1: 27-32 were carried out in a total volume of 500 μl 50 mM Tris-HCl (pH8.0) containing 5 mM MgCl2, 200 μM acceptor, 1 mM UDPG, and 50 μg pure enzyme. Aliquots (100 μl) were removed between 0 and 30 min, at which time product formation was still linear with respect to time, and quenched with 90 μl of an 8:1 mixture of ice-cold MeOH/HCl, and centrifuged at 14,000 rpm for 10 min. Supernatants were analyzed by analytical reverse-phase HPLC with a 250 mm×4.6 mm Gemini […] C18 column (Phenomenex, Torrance, Calif.) using a gradient of 10-90% CH3CN in 0.1% trifluoroacetic acid (TFA)/H2O in 20 min at 1 ml/min, with detection at 254 nm. HPLC peak areas were integrated, and the product concentration calculated as a percent of the total peak area. Product identity was confirmed by co-elution with a commercial standard when available and, in all cases, by LC-MS (FIG. 8).
(§3) Reaction conditions for assay of macrolide glycosylation were identical to that for FIG. 1: 1, except that typically, less enzyme was used (1-10 μg) and reactions were quenched with an equal volume of ice-cold MeOH. Centrifuged reaction mixtures were analyzed by analytical reverse-phase HPLC with a Gemini 5μ C18 column (Phenomenex) using a gradient of 0-90% CH3CN in 50 mM NH3COOH over 30 min at 1 ml/min. Products and acceptor macrolide were detected by evaporative light scattering detection (ELSD) using a drift tube temperature of 105° C. and a nitrogen flow of 2.5 ml/min. All products were characterized by APCI LC-MS on an Agilent 1100 Series LC/MSD quadrapole mass spectrometer connected to a UV detector. Quenched reaction mixtures were analyzed by reverse-phase HPLC with a 10 mm×4.6 mm Zorbax Extend 5μ C18 Analytical Guard Column (Agilent Technologies) using an isocratic gradient of 80% MeOH in 2 min at 1 ml/min, with detection at 254 nm.
(§4) Enzyme reactions were carried out in a total volume of 500 μl 50 mM Tris-HCl (pH8.0) containing 5 mM MgCl2, 200 μM acceptor, 1 mM UDPG, and 50 μg pure enzyme. Aliquots (100 μl) were removed between 0 and 30 min, and quenched with 90 μl of an 8:1 mixture of ice-cold MeOH/HCl for activity towards FIG. 1: 4, Table 1: 27-32, or with 90 μl of ice-cold MeOH for activity towards FIG. 1: 1, and the samples centrifuged at 14,000 rpm for 10 min.
(§5) For determination of activity to FIG. 1: 4, Table 1: 27-32, supernatants were analyzed by analytical reverse-phase HPLC with a Gemini 5μ C18 column (Phenomenex) using a gradient of 10-90% CH3CN in 0.1% trifluoroacetic acid (TFA)/H2O in 20 min, with detection at 254 nm. HPLC peak areas were integrated, and the product concentration calculated as a percent of the total peak area. All products were characterized by LC-MS. Mass spectra were obtained using electrospray ionization on an Agilent 1100 HPLC-MSD SL quadrapole mass spectrometer connected to a UV/Vis diode array detector. For LC-MS analysis, quenched reaction mixtures (see below) were analyzed by analytical reverse-phase HPLC with a 250 mm×4.6 mm Gemini 5μ C18 column (Phenomenex, Torrance, Calif.) using a gradient of 10-90% CH3CN in 0.1% formic acid/H2O in 20 min at 1 ml/min, with detection at 254 nm.
as §3, with “For determination” for “Reaction conditions for assay”, “activity toward” for “macrolide glycosylation were identical to that for”, “centrifuged” for “except that typically, less enzyme was used (1-10 μg) and reactions were quenched with an equal volume of ice-cold MeOH. Centrifuged”, “Compounds FIG. 1: 1” for “Products”, “3” for “acceptor macrolide”

WT OleD = target: T3, WT OleD (Streptomyces antibioticus, UniProt Q53685, P55A/R82V/R83E/T84P); test: as above; settings: 200 μM acceptor, 1 mM UDPG
T3 construct: made in house; host or cells: E. coli BL21(DE3)pLysS, plasmid pET28/OleD
Method: as §2, §3, §4, §5
as §3, with “For determination” for “Reaction conditions for assay”, “activity toward” for “macrolide glycosylation were identical to that for”, “centrifuged” for “except that typically, less enzyme was used (1-10 μg) and reactions were quenched with an equal volume of ice-cold MeOH. Centrifuged”, “Compounds FIG. 1: 1” for “Products”, “3” for “acceptor macrolide”

OleD A242V = target: T4, OleD A242V (Streptomyces antibioticus, UniProt Q53685, A242V/P55A/R82V/R83E/T84P); test: as above; settings: 200 μM acceptor, 1 mM UDPG
T4 construct: made in house; host or cells: E. coli BL21(DE3)pLysS (error-prone PCR clone in pET28a)
Method: as §2, §3, §4, §5
as §3, with “For determination” for “Reaction conditions for assay”, “activity toward” for “macrolide glycosylation were identical to that for”, “centrifuged” for “except that typically, less enzyme was used (1-10 μg) and reactions were quenched with an equal volume of ice-cold MeOH. Centrifuged”, “Compounds FIG. 1: 1” for “Products”, “3” for “acceptor macrolide”

OleD P67T = target: T5, OleD P67T (Streptomyces antibioticus, UniProt Q53685, P55A/P67T/R82V/R83E/T84P); test: as above; settings: 200 μM acceptor, 1 mM UDPG
T5 construct: made in house; host or cells: E. coli (site-directed mutant of pET28/OleD)
Method: as §2, §3, §4, §5
as §3, with “For determination” for “Reaction conditions for assay”, “activity toward” for “macrolide glycosylation were identical to that for”, “centrifuged” for “except that typically, less enzyme was used (1-10 μg) and reactions were quenched with an equal volume of ice-cold MeOH. Centrifuged”, “Compounds FIG. 1: 1” for “Products”, “3” for “acceptor macrolide”

| Structure (SMILES) | improvement in specific activity, S132F compared to WT OleD (OleD S132F [1]) | specific activity, G340W compared to WT OleD (OleD G340W) | Rate of glucoside formation, S132F (OleD S132F [2]) | Rate of glucoside formation, WT (WT OleD) | Rate of glucoside formation, A242V (OleD A242V) | Rate of glucoside formation, P67T (OleD P67T) |
| --- | --- | --- | --- | --- | --- | --- |
| CC(C)=CCc1cc(C(=O)Nc2c(O)c3ccc(O)c(C)c3oc2=O)ccc1O [novobiocic acid (29), novobiocic acid] | two-three fold | non-beneficial | 0.49 mmols/product formed/min/μg enzyme × 10^3 | 0.24 mmols/product formed/min/μg enzyme × 10^3 | 0.33 mmols/product formed/min/μg enzyme × 10^3 | 0.65 mmols/product formed/min/μg enzyme × 10^3 |
| Cc1cc(=O)oc2cc(O)ccc12 [4-Me-umb (4), 7-hydroxy-4-methylcoumarin] | ~2.6 fold | approximately 0.5 fold | 6.3 mmols/product formed/min/μg enzyme × 10^3 | 2.5 mmols/product formed/min/μg enzyme × 10^3 | 5.4 mmols/product formed/min/μg enzyme × 10^3 | 15.7 mmols/product formed/min/μg enzyme × 10^3 |
